Holding throughout (assay): DTP human tumour cell line panel, 48 h
Test [1] has as its system DLD-1.
Test [2] relates to DMS-114.
Test [3] relates to DMS-273.
The test system of test [4] is HOP-18.
Test [5] deals with KM-20L2.
The test system of test [6] is M19-MEL.
Test [7] concerns RXF 631.
For test [8], the system named is SNB-78.
The test system of test [9] is XF498.

Molecules are shown by their SMILES.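 Each compound was tested at five concentrations against cells in 96-well plates for 48 hours. At the GI50, growth is halved.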 The source made the active and inactive calls. No stated cut-off is given here; in the data, active = GI50 up to about 1.1 µM and inactive = higher.

One may read the GI50 as the concentration that inhibits growth by half. With `CC12OC3(C)OC(=O)C(c4ccccc4)(O1)C3(C)O2` (stereo not given), the GI50 in test [1], in test [2], in test [3], in test [4], in [5] and in [6] was > 100 µM (inactive) in each case. In addition, the GI50 in [7] and in [8] was > 100 µM (inactive) throughout.
In the case of `CC(C)(C)C1CCN(C(=O)c2ccccc2)CC1`, the GI50 in test [1] is > 100 µM (inactive); in test [2], 28.8 µM (inactive); in [3], > 100 µM (inactive); in test [4], 84.1 µM (inactive); in test [5], > 100 µM (inactive); in test [6] it was > 100 µM (inactive). Moreover, the GI50 in test [8] is > 100 µM (inactive); in test [9], < 0.01 µM (active).
For the compound `Nc1nc(N)c2cc(CNc3ccc(C(=O)NC(CC(=O)O)C(=O)O)c(Cl)c3)ccc2n1` (stereo not given), the GI50 in test [1] was 0.038 µM (active); in test [2], < 0.01 µM (active); in [3], 0.0552 µM (active); in [4], > 100 µM (inactive); in [5], 0.117 µM (active); in test [6] it was 0.596 µM (active). The GI50 in test [8] was 56 µM (inactive).
With `NC(=O)OCC(COc1ccc(Cl)cc1)OC(=O)c1ccccc1Cl` (stereo not given), the GI50 in test [1] is 18.5 µM (inactive); in [2], 14.6 µM (inactive); in test [3], 20.5 µM (inactive); in test [4] it was 26.1 µM (inactive); in test [5], 19.3 µM (inactive); in test [7], 20.3 µM (inactive). The GI50 in [8] was 36.1 µM (inactive).
On to `[O-][S+]1Nc2c(Cl)cc(Cl)c(Cl)c2S1` (stereo not given), for which the GI50 in [1] was 95.7 µM (inactive); in test [2], 76.2 µM (inactive); in [3], > 100 µM (inactive); in [4] it was > 100 µM (inactive); in test [5], > 100 µM (inactive); in [6], > 100 µM (inactive). Also, the GI50 in [8] was > 100 µM (inactive).
Regarding `O=c1/c(=C/c2cccc([N+](=O)[O-])c2)sc2nc3ccccc3n12`, the GI50 in test [1] was > 100 µM (inactive); in test [2], > 100 µM (inactive); in test [3], > 100 µM (inactive); in test [5] it was > 10 µM (inactive); in test [6] it was > 100 µM (inactive); in test [8] it was > 100 µM (inactive). Further, in test [9], the GI50 was > 100 µM (inactive).
Consider `O=c1[nH]c2cc([N+](=O)[O-])ccc2nc1/C(=N\NO)C(O)c1ccc([N+](=O)[O-])cc1` (stereo not given), for which the GI50 is > 100 µM (inactive) in [1]; 32.6 µM (inactive) in test [2]; > 100 µM (inactive) in [3]; 32.2 µM (inactive) in test [5]; > 100 µM (inactive) in test [6]; > 100 µM (inactive) in test [7]. Further, the GI50 in test [8] and in [9] was > 100 µM (inactive) each time.
On to `CCOC(=O)c1cnc2cc3cccccc3n2c1=O`, for which the GI50 in test [1] is > 100 µM (inactive); in test [2], 35 µM (inactive); in test [3], 31.8 µM (inactive); in [5] it was > 100 µM (inactive); in [8], > 100 µM (inactive).
Regarding `CCCCCCCCC1C(C)c2c([nH]c3ccccc23)C2C(=O)N(c3ccccc3)C(=O)C21` (stereo not given), the GI50 was 18.9 µM (inactive) in test [1]; 10.6 µM (inactive) in [2]; 9.75 µM (inactive) in [3]; 11.2 µM (inactive) in test [5]; 15.7 µM (inactive) in [6]; 3.41 µM (inactive) in test [7]. The GI50 in test [8] is 9.62 µM (inactive).
Turning to `O=P(NC12CC3CC(CC(C3)C1)C2)(N1CC1)N1CC1`, the GI50 was 80.5 µM (inactive) in [1]; 50.9 µM (inactive) in test [2]; 6.07 µM (inactive) in test [3]; > 100 µM (inactive) in [4]; > 100 µM (inactive) in [5]; > 100 µM (inactive) in test [6]. In addition, the GI50 in [8] is > 100 µM (inactive).
In the case of `Cc1nc(-n2nc(-c3ccccc3)cc2-c2ccccc2)sc1C(=O)/C=C/c1ccc([N+](=O)[O-])cc1`, the GI50 in test [1] is 15.3 µM (inactive); in test [3] it was 20.8 µM (inactive); in [4] it was > 100 µM (inactive); in test [5] it was 33.7 µM (inactive); in test [6] it was 20.3 µM (inactive); in test [7], 23 µM (inactive). For the same compound, the GI50 in test [8] was 61.9 µM (inactive).
Take `COCNC(=NC#N)NCOC`: the GI50 is > 62.8 µM (inactive) in test [1]; > 51.8 µM (inactive) in test [2]; > 47.1 µM (inactive) in [3]; > 100 µM (inactive) in [4]; > 76 µM (inactive) in test [5]; > 59.8 µM (inactive) in [6]. For the same compound, the GI50 in test [7] and in test [9] was > 100 µM (inactive) each time.
As for `CC12CCC3(OCCO3)C(OC(=O)c3ccccc3)=C1CCC21OCCO1` (stereo not given), the GI50 in test [1], in [2], in [3], in test [4], in test [5] and in [6] was > 100 µM (inactive) each time. Further, the GI50 in [7] and in [8] was > 100 µM (inactive) throughout.
Consider `CC(C)(C)[C@H]1CC[C@@](O)(c2ccccc2)CC1.CC(C)(C)[C@H]1CC[C@](O)(c2ccccc2)CC1`, for which the GI50 is 25.4 µM (inactive) in [1]; 21.1 µM (inactive) in [2]; 15.3 µM (inactive) in [3]; 37.8 µM (inactive) in test [4]; 16.1 µM (inactive) in test [5]; 19.4 µM (inactive) in test [6]. Also, the GI50 in test [8] was 21.8 µM (inactive); in test [9] it was < 0.01 µM (active).
Consider `CC(C(=O)c1ccc(Cl)cc1)C1OC(=O)C(Cl)=C1Cl` (stereo not given), for which the GI50 in test [1] was 21.6 µM (inactive); in [2] it was 26.2 µM (inactive); in test [4], 50.4 µM (inactive); in test [5], 86.1 µM (inactive); in [6] it was 23 µM (inactive); in test [7] it was > 100 µM (inactive). Also, the GI50 in [9] is 20.5 µM (inactive).
On to `C/C(=N\NS(=O)(=O)c1c(C)cc(C)cc1C)c1ccc[n+]([O-])n1`, for which the GI50 in test [1] was 7.16 µM (inactive); in test [2], 17.3 µM (inactive); in test [3], 16.2 µM (inactive); in test [4], 19.2 µM (inactive); in [5], 22.9 µM (inactive); in test [6], 13.9 µM (inactive). Further, the GI50 in [7] was 27.5 µM (inactive); in test [8], 14.3 µM (inactive).
As to `NC(=O)CCC(Nc1c2ccccc2[n+]([O-])c2ccccc12)C(=O)O` (stereo not given), the GI50 in test [1] was 27.8 µM (inactive); in test [2], 37.1 µM (inactive); in test [3] it was 65 µM (inactive); in [4], 16 µM (inactive); in [5] it was > 100 µM (inactive); in test [6], 77.3 µM (inactive). For the same compound, the GI50 in test [8] is > 100 µM (inactive).
As for `O=C(O)CCSC(=O)Nc1ccccc1F`, the GI50 in [2], in test [3], in test [5] and in [8] was > 100 µM (inactive) throughout.
Regarding `O=C(CC(=O)c1cccc([N+](=O)[O-])c1)C(=O)Nc1nc([N+](=O)[O-])cs1`, the GI50 in [1], in [2], in test [3], in [4], in test [5] and in test [6] was > 100 µM (inactive) in each case. Further, the GI50 in test [7] and in test [8] was > 100 µM (inactive) throughout.
In the case of `CC(C)(C)NNc1c([N+](=O)[O-])cnn(-c2ccccc2)c1=O`, the GI50 was 4.56 µM (inactive) in [1]; 3.2 µM (inactive) in test [3]; 16.7 µM (inactive) in test [4]; 6.44 µM (inactive) in test [5]; 2.47 µM (inactive) in test [6]; 15.6 µM (inactive) in [8]. The GI50 in [9] is 2.55 µM (inactive).
For `Cc1ccc2oc(=O)cc(CC(=O)O)c2c1`, the GI50 in test [1], in test [3], in test [4], in test [5], in [6] and in test [7] was > 100 µM (inactive) throughout. For the same compound, the GI50 in test [9] was 24.5 µM (inactive).
Take `C1=Cc2nc1c(-c1ccccc1)c1ccc([n-]1)c(-c1ccccc1)c1nc(c(-c3ccccc3)c3ccc([n-]3)c2-c2ccccc2)C=C1.[Zn+2]`: the GI50 in [1] is 70.1 µM (inactive); in test [2], > 100 µM (inactive); in test [5], > 100 µM (inactive); in test [6], > 100 µM (inactive); in test [7], > 100 µM (inactive); in test [8] it was > 100 µM (inactive). Moreover, in test [9], the GI50 is > 100 µM (inactive).
As to `O=C(O)CCC1c2[nH]c3ccccc3c2CCN1Cc1ccccc1` (stereo not given), the GI50 in test [1], in [2], in [3], in test [4], in [5] and in [6] was > 100 µM (inactive) in each case. Moreover, the GI50 in test [7] and in test [8] was > 100 µM (inactive) in each case.
On to `COc1ccc2oc(C(=O)O)c3c2c1CCC3`, for which the GI50 in test [1], in [2], in [3], in [4], in [5] and in test [6] was > 100 µM (inactive) in each case. For the same compound, the GI50 in test [8] and in test [9] was > 100 µM (inactive) throughout.
Consider `CC(Nc1ccc(S(=O)(=O)NC(=N)N)cc1)c1c2ccccc2nc2ccccc12` (stereo not given), for which the GI50 in test [1] is 18.1 µM (inactive); in [2], 31.7 µM (inactive); in [3], 28.3 µM (inactive); in [5], 31.8 µM (inactive); in [6] it was 34.4 µM (inactive); in test [7], 26 µM (inactive). The GI50 in test [9] is 15.8 µM (inactive).

Values taken from ChEMBL document CHEMBL1201862, “PubChem BioAssay data set” (2004).
